Structures can show the parent of a compound that is named as a salt.

A short description of data set [1]: In vivo pharmacokinetics after oral and IV administration. Also noted: species or system Balb/C mice.
Data set [2] in a line: Plasma stability in mice plasma. As to conditions: 0–2 h, 10 µM, 37°C.
The nature of data set [3]: Metabolic stability in mouse liver microsomes. It counts as in vitro ADME. As to conditions: 5 µM, 0.5 mg/mL microsomal protein, NADPH, up to 30 min.
The nature of data set [4]: Metabolic stability in human liver microsomes. It counts as in vitro ADME. As to conditions: 5 µM, 0.5 mg/mL microsomal protein, NADPH, up to 30 min.
Data set [5] in a line: Stability of rottlerin in plasma under storage conditions. It is filed as in vitro ADME, mice. As to conditions: n=4.
Data set [6] is described as follows: Plasma protein binding by rapid equilibrium dialysis. As to conditions: mouse.
Setting [7] is: intravenous, 1 mg/kg, Balb/C mice.
[8] abbreviates: male, Balb/C, mouse, plasma, iv, 1 mg/kg.
Where [9] appears, read: male, Balb/C, mouse, plasma, po, 4 mg/kg.

Regarding `CC(=O)c1c(O)c(C)c(O)c(Cc2c(O)c3c(c(C(=O)/C=C/c4ccccc4)c2O)OC(C)(C)C=C3)c1O` [Rottlerin], the Cl in data set [1] (setting [7]) was 5.83 ± 0.5 mL/min/kg; in data set [1] (intravenous, 1 mg/kg, Balb/C mice, listed as rottlerin) it was not above 17 mL/min/kg; in data set [1] (oral, 4 mg/kg, Balb/C mice), 16.8 ± 1.3 mL/min/kg; in data set [1] (oral, 4 mg/kg, Balb/C mice, listed as rottlerin), not above 17 mL/min/kg. Besides, the T1/2 in data set [1] (setting [7]) was found to be 2.9 ± 0.8 h; in data set [1] (oral, 4 mg/kg, Balb/C mice), 2.7 ± 0.4 h. The Vd in data set [1] (setting [7]) is 1.4 ± 0.4 L/kg; in data set [1] (oral, 4 mg/kg, Balb/C mice), 3.8 ± 0.6 L/kg. The “exposure (plasma levels)” value in data set [1] (iv, 1 mg/kg, Balb/C mice) was approximately 3000 ng·h/mL; in data set [1] (oral, 4 mg/kg, Balb/C mice), “around 4 μg h/mL”. Besides, the AUC(0-inf) in data set [1] (setting [8]) was 2920 ± 292 ng·h/mL; in data set [1] (setting [9]), 4090 ± 348 ng·h/mL. In addition, the values for the AUC(0-t) in data set [1] (setting [8]) and in data set [1] (setting [9]) were 2850 ± 311 ng·h/mL and 4050 ± 360 ng·h/mL, respectively. The C0 in data set [1] (setting [8]) is 2110 ± 359 ng/mL. Moreover, the half-life in data set [1] (male, Balb/C, mouse, plasma, iv, 1 mg/kg, T1/2, intravenous, Balb/C mice) is more than 2 h; in data set [1] (male, Balb/C, mouse, plasma, po, 4 mg/kg, T1/2, oral, Balb/C mice) it was more than 2 h. In addition, the Cmax in data set [1] (setting [9]) was found to be 660 ± 60 ng/mL. Besides, in data set [1] (male, Balb/C, mouse, plasma, po, 4 mg/kg, Tmax, Balb/C mice), the Tmax is approximately 2.4 h. In data set [1] (oral 4 mg/kg vs IV 1 mg/kg, Balb/C mice), the oral bioavailability was 35–36%. Further, the “degradation in mice plasma” value in data set [2] is given as less than 5%. Also, the “remained intact in MLMs” value in data set [3] was more than 75%. Moreover, in data set [4], the “remained intact in HLMs” value was “over 91%”. Moreover, the “stability study accuracy (%)” value came to 92.89% in data set [5] (autosampler: processed samples, 4 °C, 24 h, HQC 800 ng/mL); 90.04% in data set [5] (autosampler: processed samples, 4 °C, 24 h, LQC 5.7 ng/mL); 91.69% in data set [5] (freeze–thaw: three cycles, −20 °C / room temperature, HQC 800 ng/mL); 88.60% in data set [5] (freeze–thaw: three cycles, −20 °C / room temperature, LQC 5.7 ng/mL).
With `CNC(=C[N+](=O)[O-])NCCSCc1ccc(CN(C)C)o1` [ranitidine, ranitidine hydrochloride], the unbound share (fraction unbound) at 4 h, 5 µM in data set [6] was 0.793.

For the origin of these results see PMC8655892 (ACS Omega, 2021).
